Results: patent US20240269151A1, “NASAL SLEEP FORMULATION” (CS MEDICA A/S, priority 2021, published 2024)

Test: Comparison of nasal sleep compositions formulated with type A or type B crystalline CBD
Type: in vivo
Conditions: nasal sleep compositions differing only in the crystalline CBD used
Method: Two nasal sleep compositions are prepared as disclosed herein, such as according to Example 1, 5 and/or 7, the only difference being that the crystalline CBD used in the formulation is either of type A (needle-like crystals; FIG. 1) or type B (bunch/cluster-like; FIG. 2).
Type A crystalline CBD is sourced from Enecta, while type B CBD is sourced from Pharma Hemp. Further details can e.g. be found in the first aspect of the invention, such as Table 1.

C=C(C)[C@@H]1CCC(C)=C[C@H]1c1c(O)cc(CCCCC)cc1O [type A CBD, Cannabidiol]
Activity/potency of type A CBD versus type B CBD: significantly more active than type B CBD | Activity/potency of type A CBD versus type B CBD (listed as CBD with a needle-like crystal structure): significantly more potent than CBD with a different crystal structure
